Assay results: the NIST ThermoML archive (doi:10.1016/j.jct.2011.08.016)

Assay: xn = mol fraction of the nth substance listed
Details: Liquid, Vibrating tube method

CCCCCCCCCC [decane] + CCCCCCCC
Details | mass density [kg/m3]
313.19 K, 10000 kPa, x2 = 0.5314 | 710.43
313.19 K, 10000 kPa, x2 = 0.7736 | 703.28
313.19 K, 10990 kPa, x2 = 0.5314 | 711.26
313.19 K, 10990 kPa, x2 = 0.7736 | 704.16
313.19 K, 12000 kPa, x2 = 0.5314 | 712.06
313.19 K, 12000 kPa, x2 = 0.7736 | 705
313.19 K, 13000 kPa, x2 = 0.5314 | 712.86
313.19 K, 13000 kPa, x2 = 0.7736 | 705.81
313.19 K, 14000 kPa, x2 = 0.5314 | 713.65
313.19 K, 14000 kPa, x2 = 0.7736 | 706.63
313.19 K, 15000 kPa, x2 = 0.5314 | 714.44
313.19 K, 15000 kPa, x2 = 0.7736 | 707.47
313.19 K, 16000 kPa, x2 = 0.5314 | 715.21
313.19 K, 16000 kPa, x2 = 0.7736 | 708.28
313.19 K, 17000 kPa, x2 = 0.5314 | 715.97
313.19 K, 17000 kPa, x2 = 0.7736 | 709.1
313.19 K, 18000 kPa, x2 = 0.5314 | 716.73
313.19 K, 18000 kPa, x2 = 0.7736 | 709.83
313.19 K, 19000 kPa, x2 = 0.5314 | 717.47
313.19 K, 19000 kPa, x2 = 0.7736 | 710.61
313.19 K, 20000 kPa, x2 = 0.5314 | 718.2
313.19 K, 20000 kPa, x2 = 0.7736 | 711.34
313.19 K, 21000 kPa, x2 = 0.5314 | 718.89
313.19 K, 21000 kPa, x2 = 0.7736 | 712.07
313.19 K, 22000 kPa, x2 = 0.5314 | 719.56
313.19 K, 22000 kPa, x2 = 0.7736 | 712.79
313.19 K, 23000 kPa, x2 = 0.5314 | 720.23
313.19 K, 23000 kPa, x2 = 0.7736 | 713.47
313.19 K, 24000 kPa, x2 = 0.5314 | 720.88
313.19 K, 24000 kPa, x2 = 0.7736 | 714.14
313.19 K, 25000 kPa, x2 = 0.5314 | 721.52
313.19 K, 25000 kPa, x2 = 0.7736 | 714.77
323.13 K, 1000 kPa, x2 = 0.2801 | 701.5
323.13 K, 2000 kPa, x2 = 0.2801 | 702.42
323.13 K, 3000 kPa, x2 = 0.2801 | 703.33
323.13 K, 4000 kPa, x2 = 0.2801 | 704.26
323.13 K, 5000 kPa, x2 = 0.2801 | 705.16
323.13 K, 6000 kPa, x2 = 0.2801 | 706.06
323.13 K, 7000 kPa, x2 = 0.2801 | 706.95
323.13 K, 8000 kPa, x2 = 0.2801 | 707.83
323.13 K, 9000 kPa, x2 = 0.2801 | 708.7
323.13 K, 10000 kPa, x2 = 0.2801 | 709.57
323.13 K, 10990 kPa, x2 = 0.2801 | 710.5
323.13 K, 12000 kPa, x2 = 0.2801 | 711.29
323.13 K, 13000 kPa, x2 = 0.2801 | 712.12
323.13 K, 14000 kPa, x2 = 0.2801 | 712.97
323.13 K, 15000 kPa, x2 = 0.2801 | 713.78
323.13 K, 16000 kPa, x2 = 0.2801 | 714.58
323.13 K, 17000 kPa, x2 = 0.2801 | 715.38
323.13 K, 18000 kPa, x2 = 0.2801 | 716.14
323.13 K, 19000 kPa, x2 = 0.2801 | 716.9
323.13 K, 20000 kPa, x2 = 0.2801 | 717.66
323.13 K, 21000 kPa, x2 = 0.2801 | 718.38
323.13 K, 22000 kPa, x2 = 0.2801 | 719.06
323.13 K, 23000 kPa, x2 = 0.2801 | 719.71
323.13 K, 24000 kPa, x2 = 0.2801 | 720.38
323.13 K, 25000 kPa, x2 = 0.2801 | 721
323.15 K, 1000 kPa, x2 = 0.5314 | 694.85
323.15 K, 1000 kPa, x2 = 0.7736 | 687.38
323.15 K, 1000 kPa, x2 = 0.9623 | 680.8
323.15 K, 2000 kPa, x2 = 0.5314 | 695.78
323.15 K, 2000 kPa, x2 = 0.7736 | 688.41
323.15 K, 2000 kPa, x2 = 0.9623 | 681.8
323.15 K, 3000 kPa, x2 = 0.5314 | 696.73
323.15 K, 3000 kPa, x2 = 0.7736 | 689.33
323.15 K, 3000 kPa, x2 = 0.9623 | 682.74
323.15 K, 4000 kPa, x2 = 0.5314 | 697.62
323.15 K, 4000 kPa, x2 = 0.7736 | 690.27
323.15 K, 4000 kPa, x2 = 0.9623 | 683.68
323.15 K, 5000 kPa, x2 = 0.5314 | 698.58
323.15 K, 5000 kPa, x2 = 0.7736 | 691.21
323.15 K, 5000 kPa, x2 = 0.9623 | 684.65
323.15 K, 6000 kPa, x2 = 0.5314 | 699.53
323.15 K, 6000 kPa, x2 = 0.7736 | 692.18
323.15 K, 6000 kPa, x2 = 0.9623 | 685.6
323.15 K, 7000 kPa, x2 = 0.5314 | 700.45
323.15 K, 7000 kPa, x2 = 0.7736 | 693.12
323.15 K, 7000 kPa, x2 = 0.9623 | 686.57
323.15 K, 8000 kPa, x2 = 0.5314 | 701.36
323.15 K, 8000 kPa, x2 = 0.7736 | 694.08
323.15 K, 8000 kPa, x2 = 0.9623 | 687.54
323.15 K, 9000 kPa, x2 = 0.5314 | 702.24
323.15 K, 9000 kPa, x2 = 0.7736 | 694.99
323.15 K, 9000 kPa, x2 = 0.9623 | 688.5
323.15 K, 10000 kPa, x2 = 0.5314 | 703.12
323.15 K, 10000 kPa, x2 = 0.7736 | 695.89
323.15 K, 10000 kPa, x2 = 0.9623 | 689.46
323.15 K, 10990 kPa, x2 = 0.5314 | 703.99
323.15 K, 10990 kPa, x2 = 0.7736 | 696.8
323.15 K, 10990 kPa, x2 = 0.9623 | 690.4
323.15 K, 12000 kPa, x2 = 0.5314 | 704.86
323.15 K, 12000 kPa, x2 = 0.7736 | 697.73
323.15 K, 12000 kPa, x2 = 0.9623 | 691.34
323.15 K, 13000 kPa, x2 = 0.5314 | 705.72
